In patent publication US20060263760A1, “Screening method of substance with antidepressant action” (THE UNIVERSITY OF TOKYO, priority 2005, published 2006):

System: nerve cells in hippocampus CA1 region of hippocampus sections
Experiment: long-term potentiation of excitatory postsynaptic potential (EPSP) in hippocampus sections, accumulated potential with single glass electrode
Format: cell-based, rat
Details: for EPSP reaction (ratio of largest slope value of accumulated potential to basal slope value defined as 100%): read 60 minutes after stimulation
Description: A specific example of the assessment of substances with antidepressant actions by the screening method is described below. At the cell preparation step in the Example, the brain hippocampus of an adult rat was cut vertically along the longitudinal axis using vibratome (DSK ZERO1, manufactured by DOUSAKA EM K.K), to prepare plural longitudinal cross- sectional sections of a thickness of 400 μm. In this Example, a part of the hippocampus sections is prepared as a candidate substance treatment group, while another part of the hippocampus sections is prepared as a control treatment group and an additional part of the hippocampus sections is prepared as non-treatment group. These hippocampus sections were immersed in an artificial cerebrospinal fluid sufficiently saturated with a mixture gas of oxygen and carbon dioxide (95% oxygen gas, 5% carbon dioxide gas) and left to stand at room temperature for 1.5 hours or more under the purge of the mixture gas from the above over the hippocampus sections. Thereafter, the electrophysiological response was assayed as described below. As the artificial cerebrospinal fluid, an aqueous solution containing 124 mM NaCl, 1.25 mM NaH2PO4.2H2O, 5 mM KCl, 2 mM MgSO4.7H2O, 2 mM CaCl2, 22 mM NaHCO3, and 10 mM glucose was used. […] At the cell preparation step, additionally, the presynaptic fibers in the CA1 regions of the hippocampus sections were repeatedly stimulated at an interval of 20 seconds, using the stimulation electrode, while excitatory postsynaptic potential induced by the electric stimulation was recorded as accumulated potential over about 30 minutes. […] Therefore, it was determined to assess the dimension of the slope in the part M with the most rapid change of the accumulated potential on the stimulation [namely, the largest slope on the earlier side of the assay time period of accumulated potential waveform (on the left side)] […]

Row | SMILES | reduction of the level of the long-term potentiation [dimension (%) of EPSP reaction] (contact to corticosteron 1 μM versus non-treatment group, 60 minutes after high-frequency stimulation) | EPSP reaction (ratio of largest slope value of accumulated potential to basal slope value defined as 100%) (corticosteron 1 μM alone perfused 30 minutes before 100-Hz high-frequency stimulation, non-treatment group about 130%) | EPSP reaction (ratio of largest slope value of accumulated potential to basal slope value defined as 100%) (estradiol 1 nM together with corticosteron 1 μM perfused 30 minutes before 100-Hz high-frequency stimulation)
1 | C[C@]12C[C@H](O)[C@H]3[C@@H](CCC4=CC(=O)CC[C@@]43C)[C@@H]1CC[C@@H]2C(=O)CO [corticosteron] | about 20% | about 110% | –
2 | C[C@]12CC[C@@H]3c4ccc(O)cc4CC[C@H]3[C@@H]1CC[C@@H]2O [estradiol] | – | – | about 130%
